According to patent publication US20030023104A1, “Therapeutic compound - fatty acid conjugates” (COMMONWEALTH SCIENTIFIC AND INDUSTRIAL RESEARCH ORGANISATION, priority 1995, published 2003):
Several values for one entry are separate records, joined by “and”; a condition that tells them apart may be missing. Identical values can stand only once. Like-named read-outs stand apart in the source and are kept apart here.

Key:
[1] = tested on: JM (semi mature human T-cell from lymphoblastoid leukemia); assay: Cell growth (cytotoxicity) in JM cells; assay type: cell-based; details: for IC50: 5 days, read-out: IC50 (concentration of drug which reduces cell growth by 50%)
Description: (§1) The anti-HIV activities of AZT-Suc-GTP1 and AZT-Suc-GTP2 were also tested. Infected cells were incubated for 5 days with compound. Compounds were dissolved in DMSO and 5-fold dilutions were used. The following parameters were measured: syncytia formation, virus antigen gp120 production, cell survival. Cytotoxicity is also measured in uninfected cells.
(§2) JM (semi mature human T-cell from lymphoblastoid leukemia) infected with HIV-I U4550
(§3) IC50=concentration of drug which reduces cell growth by 50%.

[2] = tested on: JURKAT (acute T cell human leukemia); assay: Cytotoxicity of AZT and conjugates, MTS viability assay, JURKAT; assay type: cell-based
Description: (§4) The cytotoxicity of AZT and AZT-fatty acid conjugates (AZT-Suc-GTP1P2 and P3) was tested in vitro with JURKAT (acute T cell human leukemia) and peripheral blood mononuclear cells (PBMC).
(§5) Each concentration was tested in at least 3 wells.

HIV-I MN = assay: Anti HIV activity, Ag gp120 production in infected C8166 cells; assay type: cell-based; details: for Ratio of AZT: Conjugate EC50: C8166 cell line; for EC50: C8166 cells infected with HIV-I MN, 5 days, read-out: EC50 (concentration which reduces Ag gp120 by 50% in infected cell cultures)
Description: as §1
(§6) C8166 (human T-lymphoblastoid cells) infected with HIV-I MN
(§7) EC50=concentration which reduces Ag gp120by 50% in infected cell cultures.

[3] = tested on: peripheral blood mononuclear cells (PBMC); assay: Cytotoxicity of AZT and conjugates, MTS viability assay, PBMC; assay type: cell-based, human; details: 40 h, drug in ethanol
Description: as §4
Human peripheral blood mononuclear cells (PBMC) were isolated from three healthy donors by centrifugation on Ficoll-Paque (Pharmacia). Cells were seeded into a 96-well plates at a density of 2×10^5 cells/200 ul complete RPMI ± drug and cultured for 40 h.
as §5

HIV-I U4550 = assay: Anti HIV activity, Ag gp120 production in infected JM cells; assay type: cell-based; details: for Ratio of AZT: Conjugate EC50: JM cell line; for EC50: JM cells infected with HIV-I U4550, 5 days, read-out: EC50 (concentration which reduces Ag gp120 by 50% in infected cell cultures)
Description: as §1, §2, §7

[4] = tested on: C8166 (human T-lymphoblastoid cells); assay: Cell growth (cytotoxicity) in C8166 cells; assay type: cell-based; details: for IC50: 5 days, read-out: IC50 (concentration of drug which reduces cell growth by 50%)
Description: as §1, §6, §3

B16 mouse melanoma cells = assay: Cytotoxicity of chlorambucil and conjugates, MTS assay, B16; assay type: cell-based; details: for IC50: B16, ethanol delivery, 48 h
Description: Media was removed and complete EMEM ± drug was added to wells. Cells were further cultured for 48 h.
as §5

[5] = tested on: human peripheral blood mononuclear cells; assay: Cytotoxicity of chlorambucil and conjugates, MTS assay, PBMC; assay type: cell-based; details: for IC50: ethanol delivery
Description: Human peripheral blood mononuclear cells (PBMC) were isolated from one healthy donor by centrifugation on Ficoll-Paque (Pharmacia). Cells were seeded into a 96-well plates at a density of 2×10^5 cells/200 μl complete RPMI ± drug and cultured for 40 h.
as §5

[6] = tested on: PC3 human prostate cancer cells; assay: Cytotoxicity of chlorambucil and conjugates, MTS assay, PC3; assay type: cell-based; details: for IC50: PC3, ethanol delivery, 72 h
Description: Cells were further cultured for 72 h.
as §5

[7] = tested on: JURKAT cells (acute T cell human leukemia)
Description: The cytotoxicity of chlorambucil and chlorambucil fatty acid conjugates (CGTP1. P2 and P3) were tested in vitro with JURKAT cells (acute T cell human leukemia). Cells were incubated with drug and viability was determined by a colourmetric proliferation test. Cytotoxicity towards other cells lines was also tested (PC3 human prostate cancer cells, B16 mouse melanoma cells and human peripheral blood mononuclear cells).
JURKAT cells were seeded into 96-well plates at a density of 1.6×10^4 cells/200 μl complete RPMI ± drug and cultured for 64 h. A 1:3 split of confluent PC3 cells in a 75 cm^2 flask were seeded into a 96-well plate and cultured for 48 h in complete RPMI. Media was removed and complete RPMI ± drug was added to wells. Cells were further cultured for 72 h.
i) Ethanol. Drugs were dissolved in ethanol and added to culture media. The final concentration of ethanol in media was no greater than 1% (v/v). This delivery was used for experiments with JURKAT, PBMC, PC3 and B16 cell types.
ii) Coating of plates. Drugs were dissolved in ethanol and aliquots (up to 40 μl) were added to 90% (v/v) isopropanol. Solution (50 μl) was then added to wells of a 96-well plate and the solvent evaporated by heating at 37° C. Media ± cells was then added. This delivery was used for some experiments with JURKAT cells.
Viability was determined using the MTS assay (CellTiter 96TM AQueous Non-Radioactive Cell Proliferation Assay) from Promega. Reagent (40 μl) was added to each well and absorbance values at 490 nm were determined 1 to 4 h later. The effect of drug on cell viability was compared to cultures set up containing no drug (100% viability). Wells containing no cells were used to control for background absorbance (0% viability). Each concentration was tested in at least 3 wells. Concentrations necessary to cause a 50% inhibition of cellular growth of control cells (IC50) were calculated by linear regression.

[8] = tested on: pain response on heated plate; details: for Time Response ± SEM: doses 5, 10 & 20 mg Morphine/kg pooled, 12 mice per group; for Behaviour Score ± SEM: pooled doses, panel score 0 (agitated) to 3 (placid)
Description: The biological activities of Morphine (Mo) and fatty acid conjugates were tested in an antinociceptive assay using mice. Various doses and duration of pain-killing effect of the drugs were examined.
Quackenbush Strain mice (male, 5-week-old, approximately 30 g live weight) were used for the experiments. Animals were given free access to food and water prior to and during the experiment. Animals were divided into groups of 12 and individually weighed. The mean weight for each group was calculated. Mice were then placed on a metal block heated to 50° C. and the time taken for the animals to show signs of discomfort was measured (baseline response: control). Mice were then injected intraperitoneally (ip) with various doses of Morphine or Morphine-fatty acid conjugate. Morphine was made up in a H2O solution and Morphine-fatty acids were made up in an emulsion containing 10% glycerylmonooleate, 21% Miglyol, 6% ethanol, 24% Tween 80 (33%) and 39% H2O. 0.2 ml of appropriate solution was injected ip into each mouse. At different times after injection, responses on the heated plate were measured. In each experiment 3 doses of Morphine and Morphine-fatty acid and 2 time points were tested. A single mouse was used for each treatment and the entire experiment repeated at least 3 times. […] Members of the panel were asked to score mice behaviour according to the following key:
0=agitated mouse, distressed
1=showing mild discomfort
2=not agitated or uncomfortable but still alert
3=placid. docile; not at all worried.
Results from the panel were averaged.

coordination of mice = assay: Coordination on Rotor-Rod; assay type: in vivo, Quackenbush Strain mice; details: 1 and 4 hr after ip injection, 1.6 rpm
Description: Coordination of mice after treatment was also assessed by placing treated animals on a Rotor-Rod at 1.6 rpm. The ability of animals to stay on the rod was assessed.

B16 melanoma cells = assay: Tumour Cytotoxicity Model (B16 melanoma in C57 mice); assay type: in vivo, C57 black mice; design: Mean (standard error) of B16 tumour volume adjusted for the variation in initial volume: scale not given here; details: for Mean (standard error) of B16 tumour volume adjusted for the variation in initial volume: statistically modified tumour volume; for B16 Tumour Volume: individual mice
Description: Groups of C57 black mice were given an initiation dose of 2×10^5 B16 melanoma cells as an intradermal injection. The cells were suspended in MEM without serum. The abdomen was clipped and 100 μl of cells + MEM was injected. […] The tumours were measured with a micrometer and photographed just prior to the injection of drug (day 8-10).
The cytotoxic drugs and their fatty acid conjugates were dissolved or suspended in 4:1 soy bean oil:ethyl oleate. A 10 mg/ml or a 20 mg/ml solution of each parent drug or the fatty acid conjugate made to the same molar concentration as the parent drug was then injected into the same region as the tumour at a dose of 0.5 mg or 1 mg. The tumours were then photographed, measured and re-injected every two to three days.

[9] = JURKAT, addition of ethanol solution to culture media
[10] = JURKAT, coating of plates (Table 8)
[11] = JURKAT, drugs coated onto plates (Table 9)

Compound	fold more cytotoxic than AZT [1]	IC50 [1] [µM]	Ratio of AZT: Conjugate EC50 (HIV-I MN)	EC50 (HIV-I MN) [µM]	Ratio of AZT: Conjugate EC50 (HIV-I U4550)	EC50 (HIV-I U4550) [µM]	fold more cytotoxic than AZT [4]	IC50 [4] [µM]	IC50 (B16 mouse melanoma cells) [µM]	IC50 ([5]; PBMC (1) = one donor, 40 h) [µM]	IC50 ([5]; PBMC (3) = three donors) [µM]	IC50 [6] [µM]	IC50 [7, 9] [µM]	IC50 [7, 10] [µM]	IC50 [7, 11] [µM]	IC50 ([7]; JURKAT, ethanol delivery, 64 h) [µM]	mean time response ([8]; 5 mg Mo/kg ip, 1 hr)	mean time response ([8]; 5 mg Mo/kg ip, 4 hr)	mean time response ([8]; 5 mg Mo/kg ip, 6 hr)	Time Response ± SEM ([8]; 1 hr after ip injection) [s]	also measured
CCCCCCCCCCCCCCCC(=O)OCC(CO)(CO)NC(=O)CNC(=O)CCC(=O)OC[C@H]1O[C@@H](n2cc(C)c(=O)[nH]c2=O)C[C@@H]1N=[N+]=[N-] [AZT-Suc-GTP1]	50	100	1.3	0.012	12.5	8	50	100	–	–	–	–	–	–	–	–	–	–	–	–	times more cytotoxic than the parent drug ([2]; JURKAT cells, versus AZT): 40; IC50 ([2]; JURKAT, 64 h, drug in ethanol, MTS): 43 µM; IC50 [3]: 26.7 µM
CCCCCCCCCCCCCCCC(=O)OCC(CO)(COC(=O)CCCCCCCCCCCCCCC)NC(=O)CNC(=O)CCC(=O)OC[C@H]1O[C@@H](n2cc(C)c(=O)[nH]c2=O)C[C@@H]1N=[N+]=[N-] [AZT-Suc-GTP2]	25	200	0.5	0.032	approx. 0.5	> 200	25	200	–	–	–	–	–	–	–	–	–	–	–	–	–
CCCCCCCCCCCCCCCC(=O)OCC(CO)(CO)NC(=O)CNC(=O)CCCc1ccc(N(CCCl)CCCl)cc1 [CGTP1, Chlorambucil-Gly-Tris-Monopalmitate]	–	–	–	–	–	–	–	–	23.1	7.1	5.5	10.7	6.5	8.6	8.4	6.5	–	–	–	–	Clorambucil to CGTP1 Ratio (IC50) (B16 mouse melanoma cells; B16): 1.6; fold increase in toxicity to normal cells (PBMC) versus chlorambucil ([5]; PBMC): approximately 5; Clorambucil to CGTP1 Ratio (IC50) ([5]; PBMC (1)): 6.3; Clorambucil to CGTP1 Ratio (IC50) ([5]; PBMC (3)): approx. 4; Clorambucil to CGTP1 Ratio (IC50) ([6]; PC3): 15.0; Clorambucil to CGTP1 Ratio (IC50) ([7]; JURKAT): 15 and 15.5; cytotoxicity to JURKAT cells (in words) ([7]; comparison of conjugate, equimolar mixture and GTP1 alone): more cytotoxic to JURKAT cells than an equimolar mixture of chlorambucil and GTP1
CN1CC[C@]23c4c5ccc(O)c4O[C@H]2[C@@H](O)C=C[C@H]3[C@H]1C5 [Morphine, reference compound]	–	–	–	–	–	–	–	–	–	–	–	–	–	–	–	–	27.8 (4) sec	23.9 (8) sec	20.0 (4) sec	32.7 ± 2.74	mean time response ([8]; 1 mg Mo/kg ip, 4 hr, standard error of each mean ±2.86): 23.2 s; mean time response ([8]; 1 mg Mo/kg ip, 6 hr, standard error of each mean ±2.86): 20.8 s; mean time response ([8]; 10 mg Mo/kg ip, 4 hr, standard error of each mean ±2.86): 23.0 s; mean time response ([8]; 10 mg Mo/kg ip, 6 hr, standard error of each mean ±2.86): 24.2 s; Behaviour Score ± SEM ([8]; 1 hr after ip injection): 2.46 ± 0.166; Time Response ± SEM ([8]; 4 hr after ip injection): 28.2 ± 2.74 s; Behaviour Score ± SEM ([8]; 4 hr after ip injection): 1.93 ± 0.166; ability to stay on the Rotor-Rod (coordination) (coordination of mice): able to stay on the rotor-rod
CCCCCCCCCCCCCCCC(=O)OCC(CO)(COC(=O)CCCCCCCCCCCCCCC)NC(=O)CNC(=O)CCC(=O)Oc1ccc2c3c1O[C@H]1[C@@H](O)C=C[C@H]4[C@@H](C2)N(C)CC[C@@]341 [Morphine-Suc-GTP2, Morphine-Suc-Gly-Tris-Dipalmitate]	–	–	–	–	–	–	–	–	–	–	–	–	–	–	–	–	24.0 (4) sec	30.5 (8) sec	27.8 (4) sec	26.7 ± 2.74	Behaviour Score ± SEM ([8]; 1 hr after ip injection): 2.34 ± 0.166; Time Response ± SEM ([8]; 4 hr after ip injection): 31.2 ± 2.74 s; Behaviour Score ± SEM ([8]; 4 hr after ip injection): 2.35 ± 0.166; duration of pain-killing effect compared with morphine ([8]; ip injection): longer lasting pain-killing effect than unconjugated morphine; ability to stay on the Rotor-Rod (coordination) (coordination of mice): able to stay on the rotor-rod
Chlorambucil [reference compound]	–	–	–	–	–	–	–	–	36.5	45	< 22	160	101	219	219	101	–	–	–	–	difference in tumour volume from the Vehicle group (95% level) (B16 melanoma cells; 0.5 mg and 1.0 mg groups): significant difference; Mean (standard error) of B16 tumour volume adjusted for the variation in initial volume (B16 melanoma cells; 13/11/95, 0.5 mg): 3.01 (0.610); Mean (standard error) of B16 tumour volume adjusted for the variation in initial volume (B16 melanoma cells; 15/11/95, 0.5 mg): 3.29 (0.955); Mean (standard error) of B16 tumour volume adjusted for the variation in initial volume (B16 melanoma cells; 16/11/95, 0.5 mg): 3.46 (1.15); Mean (standard error) of B16 tumour volume adjusted for the variation in initial volume (B16 melanoma cells; 17/11/95, 0.5 mg): 3.65 (1.38); toxicity observed in test group (B16 melanoma cells; C57 mice, repeated injection every two to three days): High toxicity; B16 Tumour Volume (B16 melanoma cells; Day 1, drug dose 0.5 mg injected at tumour region): 0.5 mm^2 and 1.6 mm^2 and 8.2 mm^2 and 16.6 mm^2; B16 Tumour Volume (B16 melanoma cells; Day 3, drug dose 0.5 mg): 0.5 mm^2 and 0 mm^2 and 21.8 mm^2 and 38.3 mm^2; B16 Tumour Volume (B16 melanoma cells; Day 5, drug dose 0.5 mg): 0 mm^2 (2×) and 7.7 mm^2 and 108.4 mm^2; B16 Tumour Volume (B16 melanoma cells; Day 6, drug dose 0.5 mg): 0 mm^2 (2×) and 7.7 mm^2 and 125.1 mm^2; B16 Tumour Volume (B16 melanoma cells; Day 7, drug dose 0.5 mg): 0 mm^2 (2×) and 5.9 mm^2 and 174.1 mm^2; mice died (B16 melanoma cells; chlorambucil test group): 3 out of 7
